Test results reported in ChEMBL document CHEMBL1201862, “PubChem BioAssay data set” (2004).
Active and inactive are the calls of the source.

Experiments:
[1] = biological target: Potassium voltage-gated channel subfamily KQT member 2 (Rattus norvegicus, UniProt O88943, W236L); assay: potentiation of rat KCNQ2 current – cell-based, automated electrophysiology, mechanism study for KCNQ2 potentiator project, dose response (AID 2603); assay type: functional
[2] = biological target: T1, E3 ubiquitin-protein ligase XIAP (Homo sapiens, UniProt P98170); assay: Counter Screen using XIAP-Bir3 for Chemical Antagonists of Bir1/2 domains of IAP-family anti-apoptotic proteins. [Related pubchem assays (depositor defined):AID1018, AID1449, AID1514, AID1638, AID1749, AID1750, AID488957, AID488963]
[3] = biological target: T1, E3 ubiquitin-protein ligase XIAP; assay: small molecules displacing peptide from XIAP – biochemical, IAP family, fluorescence polarization (AID 1018); assay type: functional
Estrogen receptor = biological target: T2, Estrogen receptor (Homo sapiens, UniProt P03372); assay: ERα coactivator recruitment enhancers – biochemical, TR-FRET, ERα LBD, dose response (AID 737)
T2 sequence (P03372 whole entry): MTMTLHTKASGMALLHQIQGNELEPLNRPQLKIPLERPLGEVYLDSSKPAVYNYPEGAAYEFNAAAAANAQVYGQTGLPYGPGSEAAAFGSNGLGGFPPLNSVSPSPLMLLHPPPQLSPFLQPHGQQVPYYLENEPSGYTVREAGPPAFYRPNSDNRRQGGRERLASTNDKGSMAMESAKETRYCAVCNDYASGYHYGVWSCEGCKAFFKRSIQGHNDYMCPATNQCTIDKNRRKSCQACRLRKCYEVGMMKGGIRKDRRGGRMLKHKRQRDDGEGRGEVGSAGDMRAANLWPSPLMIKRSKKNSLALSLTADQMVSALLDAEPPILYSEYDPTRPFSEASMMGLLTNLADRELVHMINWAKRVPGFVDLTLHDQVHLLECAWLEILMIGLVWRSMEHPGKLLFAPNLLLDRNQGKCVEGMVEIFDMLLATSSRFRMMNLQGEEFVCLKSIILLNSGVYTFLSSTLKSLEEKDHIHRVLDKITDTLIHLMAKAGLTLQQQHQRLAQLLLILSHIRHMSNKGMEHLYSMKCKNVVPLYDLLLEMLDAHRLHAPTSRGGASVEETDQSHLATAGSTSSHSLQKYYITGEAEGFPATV

[4] = biological target: T3, Replicative DNA helicase DnaB (Mycobacterium tuberculosis, UniProt P9WMR3); assay: DnaB intein splicing inhibitors, dose response, biochemical, cell-free fluorescence (AID 449749); assay type: functional
T3 sequence (P9WMR3 whole entry): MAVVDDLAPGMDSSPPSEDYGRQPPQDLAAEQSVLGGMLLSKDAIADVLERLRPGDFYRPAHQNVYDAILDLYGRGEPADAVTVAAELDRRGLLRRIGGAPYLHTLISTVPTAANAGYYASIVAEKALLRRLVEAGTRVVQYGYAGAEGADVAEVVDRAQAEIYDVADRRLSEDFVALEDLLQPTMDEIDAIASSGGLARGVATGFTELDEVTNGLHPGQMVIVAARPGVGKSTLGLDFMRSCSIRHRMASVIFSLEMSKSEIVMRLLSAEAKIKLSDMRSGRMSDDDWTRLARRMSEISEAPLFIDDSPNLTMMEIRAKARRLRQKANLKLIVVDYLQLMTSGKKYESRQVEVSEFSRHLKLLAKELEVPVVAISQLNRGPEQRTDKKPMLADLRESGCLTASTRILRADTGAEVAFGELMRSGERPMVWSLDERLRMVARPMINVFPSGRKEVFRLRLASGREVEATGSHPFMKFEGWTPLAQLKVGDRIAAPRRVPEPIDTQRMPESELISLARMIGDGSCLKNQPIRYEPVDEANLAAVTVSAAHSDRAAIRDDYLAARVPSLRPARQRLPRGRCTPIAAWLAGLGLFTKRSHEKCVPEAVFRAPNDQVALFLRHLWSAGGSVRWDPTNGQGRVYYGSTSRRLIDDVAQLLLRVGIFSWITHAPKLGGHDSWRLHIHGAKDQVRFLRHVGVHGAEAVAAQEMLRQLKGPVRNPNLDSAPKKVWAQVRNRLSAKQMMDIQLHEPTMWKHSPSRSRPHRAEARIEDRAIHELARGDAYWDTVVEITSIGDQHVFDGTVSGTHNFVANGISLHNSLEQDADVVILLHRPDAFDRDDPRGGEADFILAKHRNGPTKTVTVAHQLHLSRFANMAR

Protein RecA = biological target: T4, Protein RecA (Mycobacterium tuberculosis, UniProt P9WHJ3); assay: Fluorescence Cell-Free Homogeneous Dose Retest to Identify Inhibitors of RecA-Intein Splicing Activity. [Related pubchem assays (depositor defined):AID2097, AID2223, AID489010, AID492950]; assay type: functional
T4 sequence (P9WHJ3 whole entry): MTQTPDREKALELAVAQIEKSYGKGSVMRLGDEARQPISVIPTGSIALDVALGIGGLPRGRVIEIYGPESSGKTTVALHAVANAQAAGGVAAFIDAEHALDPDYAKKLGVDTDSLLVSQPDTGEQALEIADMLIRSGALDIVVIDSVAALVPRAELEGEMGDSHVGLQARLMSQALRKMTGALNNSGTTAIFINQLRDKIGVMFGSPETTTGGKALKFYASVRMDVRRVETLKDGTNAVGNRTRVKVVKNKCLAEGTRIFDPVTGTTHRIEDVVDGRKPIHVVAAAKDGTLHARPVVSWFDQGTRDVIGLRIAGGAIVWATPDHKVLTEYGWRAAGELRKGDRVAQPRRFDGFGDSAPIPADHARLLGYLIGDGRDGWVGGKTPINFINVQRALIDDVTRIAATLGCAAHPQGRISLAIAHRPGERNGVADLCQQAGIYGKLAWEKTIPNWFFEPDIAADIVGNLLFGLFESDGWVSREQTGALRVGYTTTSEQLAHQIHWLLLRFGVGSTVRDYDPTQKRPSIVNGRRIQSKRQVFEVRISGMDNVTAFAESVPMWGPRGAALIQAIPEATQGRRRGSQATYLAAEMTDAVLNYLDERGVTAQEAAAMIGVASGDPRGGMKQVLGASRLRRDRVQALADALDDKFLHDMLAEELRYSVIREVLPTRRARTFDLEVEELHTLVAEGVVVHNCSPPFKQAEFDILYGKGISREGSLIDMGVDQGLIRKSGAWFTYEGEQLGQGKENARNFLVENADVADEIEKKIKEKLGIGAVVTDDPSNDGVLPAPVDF

Bcl-2-like protein 10 = biological target: T5, Bcl-2-like protein 10 (Homo sapiens, UniProt Q9HD36); assay: Concentration-response of Bcl-B inhibitors by biochemical FP with TR3 (AID 1243); assay type: functional
T5 sequence (Q9HD36 whole entry): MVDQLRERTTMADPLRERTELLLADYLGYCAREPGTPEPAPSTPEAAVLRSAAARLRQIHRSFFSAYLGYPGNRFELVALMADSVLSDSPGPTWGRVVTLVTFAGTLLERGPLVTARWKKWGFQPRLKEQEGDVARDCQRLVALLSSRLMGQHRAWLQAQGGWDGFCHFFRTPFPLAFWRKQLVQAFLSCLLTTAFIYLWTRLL

Mucolipin-3 = Mucolipin-3 (Homo sapiens, UniProt Q8TDD5); assay: Dose response cell-based high-throughput screening assay for agonists of the transient receptor potential channel ML3 (TRPML3). [Related pubchem assays: 1526, 1424, 1448 ]; assay type: functional
Ion channel NompC = Ion channel NompC (Danio rerio, UniProt Q7T1G6); assay: Fluorescence counterscreen assay for TRPML3 agonists: dose response cell-based high-throughput screening assay to identify agonists of the transient receptor potential channel N1 (TRPN1). [Related pubchem assays: 1526, 1424, 1448 ]; assay type: functional
[5] = biological target: T6, Neuropeptide Y receptor type 2 (Homo sapiens, UniProt P49146); assay: IC50 for human NPY-Y2 blockade – cell-based, counter-screen for NPY-Y1 antagonist project, dose response (AID 1278); assay type: functional
T6 sequence (P49146 whole entry): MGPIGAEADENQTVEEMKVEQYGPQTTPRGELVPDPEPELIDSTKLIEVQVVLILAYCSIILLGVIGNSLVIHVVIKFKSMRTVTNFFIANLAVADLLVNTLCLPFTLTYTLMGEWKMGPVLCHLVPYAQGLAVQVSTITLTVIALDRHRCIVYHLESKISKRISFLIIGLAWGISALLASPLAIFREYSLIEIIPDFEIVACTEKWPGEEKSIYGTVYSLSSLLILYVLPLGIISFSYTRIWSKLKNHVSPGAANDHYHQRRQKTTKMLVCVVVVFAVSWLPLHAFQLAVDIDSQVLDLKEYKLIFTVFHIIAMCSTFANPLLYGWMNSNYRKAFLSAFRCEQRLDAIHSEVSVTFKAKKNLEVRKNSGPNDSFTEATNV

[6] = biological target: T7, Neuropeptide Y receptor type 1 (Homo sapiens, UniProt P25929); assay: IC50 of human NPY-Y1 blockers – cell-based, dose response (AID 1277); assay type: functional
T7 sequence (P25929 whole entry): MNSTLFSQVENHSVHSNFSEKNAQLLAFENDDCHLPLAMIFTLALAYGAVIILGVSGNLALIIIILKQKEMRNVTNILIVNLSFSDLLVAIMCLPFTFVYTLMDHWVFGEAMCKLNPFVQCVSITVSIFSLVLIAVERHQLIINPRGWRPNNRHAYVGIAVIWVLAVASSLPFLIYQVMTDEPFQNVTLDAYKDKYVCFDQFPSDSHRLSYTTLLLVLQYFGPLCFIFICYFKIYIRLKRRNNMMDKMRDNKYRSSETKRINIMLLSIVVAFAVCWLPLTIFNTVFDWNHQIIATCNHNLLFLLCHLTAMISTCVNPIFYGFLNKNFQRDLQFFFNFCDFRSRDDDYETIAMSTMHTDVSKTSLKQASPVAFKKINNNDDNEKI

[7] = Luminescence Cell-Based Dose-Confimation HTS to Identify Inhibitors of 5'UTR Stem-Loop Driven Alpha-Synuclein mRNA Translation in H4 Neuroglioblastoma Cells. [Related pubchem assays: 1827 (Project Summary), 1813 (Primary HTS)]; assay type: functional
[8] = biological target: Luciferin 4-monooxygenase (Photinus pyralis, UniProt P08659); assay: Counter Screen for Luciferase-based Assay Positives. [Related pubchem assays: 620, 618, 411 ]
HT-1080 = assay: HT1080 cell viability loss – fluorescence readout (AID 620); assay type: functional, cell-based; settings: Homo sapiens
HEK293 = assay: EBV LMP1 TES2 canonical NF-kB signalling blockers – cell-based, HEK293, luciferase, cherry-pick, dose response (AID 588343); assay type: functional; settings: Homo sapiens
[9] = biological target: T8, Calpain-2 catalytic subunit (Sus scrofa, UniProt P43367); assay: m-calpain protease blockers, concentration series – biochemical, fluorogenic peptide substrate, dose response (AID 1420); assay type: functional
T8 sequence (P43367 whole entry): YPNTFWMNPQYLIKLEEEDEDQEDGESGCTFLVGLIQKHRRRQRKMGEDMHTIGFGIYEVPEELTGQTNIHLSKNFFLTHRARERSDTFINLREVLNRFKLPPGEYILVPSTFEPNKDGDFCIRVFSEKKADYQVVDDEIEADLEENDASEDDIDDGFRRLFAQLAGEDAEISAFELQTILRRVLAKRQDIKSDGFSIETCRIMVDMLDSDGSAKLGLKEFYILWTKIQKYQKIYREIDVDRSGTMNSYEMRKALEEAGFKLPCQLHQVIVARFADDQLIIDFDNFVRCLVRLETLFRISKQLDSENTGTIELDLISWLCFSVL

[10] = antiviral protection against BTV-induced cell death – arbovirus, BSR cells, confirmation (AID 1250); assay type: functional;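 also: protection from viral cytopathic effect measured as cell viability by ATP luminescence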

T1 sequence (P98170 whole entry): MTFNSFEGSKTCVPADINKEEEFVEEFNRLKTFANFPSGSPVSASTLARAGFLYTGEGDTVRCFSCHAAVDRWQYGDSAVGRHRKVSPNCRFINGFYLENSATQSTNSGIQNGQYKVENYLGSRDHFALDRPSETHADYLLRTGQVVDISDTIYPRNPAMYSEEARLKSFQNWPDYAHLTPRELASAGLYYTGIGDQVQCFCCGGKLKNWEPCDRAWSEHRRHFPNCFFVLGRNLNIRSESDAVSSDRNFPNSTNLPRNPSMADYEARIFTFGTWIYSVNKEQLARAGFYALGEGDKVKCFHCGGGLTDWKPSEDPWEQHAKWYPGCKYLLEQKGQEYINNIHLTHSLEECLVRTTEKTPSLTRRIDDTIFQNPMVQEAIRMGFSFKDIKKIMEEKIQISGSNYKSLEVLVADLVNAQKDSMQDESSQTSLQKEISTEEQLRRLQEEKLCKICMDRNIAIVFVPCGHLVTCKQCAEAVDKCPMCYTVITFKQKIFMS
Chain of Mucolipin-3 (Q8TDD5 whole entry): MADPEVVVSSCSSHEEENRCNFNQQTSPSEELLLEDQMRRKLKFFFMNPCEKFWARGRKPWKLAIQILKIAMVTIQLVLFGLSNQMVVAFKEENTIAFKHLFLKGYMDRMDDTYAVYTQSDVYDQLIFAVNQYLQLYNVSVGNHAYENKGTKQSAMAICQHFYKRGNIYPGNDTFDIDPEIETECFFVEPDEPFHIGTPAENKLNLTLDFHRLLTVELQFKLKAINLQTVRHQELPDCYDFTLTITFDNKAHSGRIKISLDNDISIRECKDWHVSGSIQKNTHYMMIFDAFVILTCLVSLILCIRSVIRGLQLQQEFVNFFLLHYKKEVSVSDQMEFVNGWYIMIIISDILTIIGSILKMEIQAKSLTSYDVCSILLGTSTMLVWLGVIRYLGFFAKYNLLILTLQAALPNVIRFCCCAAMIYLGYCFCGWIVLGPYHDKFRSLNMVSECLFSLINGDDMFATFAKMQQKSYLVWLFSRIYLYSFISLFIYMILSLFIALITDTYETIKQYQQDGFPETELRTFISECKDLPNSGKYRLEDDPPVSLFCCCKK
Chain of Potassium voltage-gated channel subfamily KQT member 2 (O88943 whole entry W236L): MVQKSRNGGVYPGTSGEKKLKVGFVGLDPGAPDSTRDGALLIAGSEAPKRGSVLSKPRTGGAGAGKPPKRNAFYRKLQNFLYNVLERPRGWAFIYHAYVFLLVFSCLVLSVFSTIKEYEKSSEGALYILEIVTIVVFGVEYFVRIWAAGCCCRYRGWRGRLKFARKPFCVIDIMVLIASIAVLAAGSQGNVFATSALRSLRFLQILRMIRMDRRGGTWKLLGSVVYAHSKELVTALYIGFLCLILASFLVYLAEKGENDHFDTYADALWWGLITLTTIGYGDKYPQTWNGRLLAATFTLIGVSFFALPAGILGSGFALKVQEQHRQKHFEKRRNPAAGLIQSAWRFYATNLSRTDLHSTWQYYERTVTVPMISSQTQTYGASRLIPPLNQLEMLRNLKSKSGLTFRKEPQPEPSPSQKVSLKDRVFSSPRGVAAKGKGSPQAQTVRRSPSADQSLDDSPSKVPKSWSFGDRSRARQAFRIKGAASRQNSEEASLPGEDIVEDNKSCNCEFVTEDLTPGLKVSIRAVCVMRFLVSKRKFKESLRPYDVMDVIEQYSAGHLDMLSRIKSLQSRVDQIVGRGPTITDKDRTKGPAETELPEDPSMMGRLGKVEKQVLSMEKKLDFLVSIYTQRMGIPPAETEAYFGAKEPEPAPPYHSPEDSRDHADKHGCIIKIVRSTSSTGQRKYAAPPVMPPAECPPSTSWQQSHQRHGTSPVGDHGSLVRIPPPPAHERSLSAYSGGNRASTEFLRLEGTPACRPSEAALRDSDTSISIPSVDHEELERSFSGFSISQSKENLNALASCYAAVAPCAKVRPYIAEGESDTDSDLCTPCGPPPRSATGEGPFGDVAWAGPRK
Chain of Ion channel NompC (Q7T1G6 whole entry): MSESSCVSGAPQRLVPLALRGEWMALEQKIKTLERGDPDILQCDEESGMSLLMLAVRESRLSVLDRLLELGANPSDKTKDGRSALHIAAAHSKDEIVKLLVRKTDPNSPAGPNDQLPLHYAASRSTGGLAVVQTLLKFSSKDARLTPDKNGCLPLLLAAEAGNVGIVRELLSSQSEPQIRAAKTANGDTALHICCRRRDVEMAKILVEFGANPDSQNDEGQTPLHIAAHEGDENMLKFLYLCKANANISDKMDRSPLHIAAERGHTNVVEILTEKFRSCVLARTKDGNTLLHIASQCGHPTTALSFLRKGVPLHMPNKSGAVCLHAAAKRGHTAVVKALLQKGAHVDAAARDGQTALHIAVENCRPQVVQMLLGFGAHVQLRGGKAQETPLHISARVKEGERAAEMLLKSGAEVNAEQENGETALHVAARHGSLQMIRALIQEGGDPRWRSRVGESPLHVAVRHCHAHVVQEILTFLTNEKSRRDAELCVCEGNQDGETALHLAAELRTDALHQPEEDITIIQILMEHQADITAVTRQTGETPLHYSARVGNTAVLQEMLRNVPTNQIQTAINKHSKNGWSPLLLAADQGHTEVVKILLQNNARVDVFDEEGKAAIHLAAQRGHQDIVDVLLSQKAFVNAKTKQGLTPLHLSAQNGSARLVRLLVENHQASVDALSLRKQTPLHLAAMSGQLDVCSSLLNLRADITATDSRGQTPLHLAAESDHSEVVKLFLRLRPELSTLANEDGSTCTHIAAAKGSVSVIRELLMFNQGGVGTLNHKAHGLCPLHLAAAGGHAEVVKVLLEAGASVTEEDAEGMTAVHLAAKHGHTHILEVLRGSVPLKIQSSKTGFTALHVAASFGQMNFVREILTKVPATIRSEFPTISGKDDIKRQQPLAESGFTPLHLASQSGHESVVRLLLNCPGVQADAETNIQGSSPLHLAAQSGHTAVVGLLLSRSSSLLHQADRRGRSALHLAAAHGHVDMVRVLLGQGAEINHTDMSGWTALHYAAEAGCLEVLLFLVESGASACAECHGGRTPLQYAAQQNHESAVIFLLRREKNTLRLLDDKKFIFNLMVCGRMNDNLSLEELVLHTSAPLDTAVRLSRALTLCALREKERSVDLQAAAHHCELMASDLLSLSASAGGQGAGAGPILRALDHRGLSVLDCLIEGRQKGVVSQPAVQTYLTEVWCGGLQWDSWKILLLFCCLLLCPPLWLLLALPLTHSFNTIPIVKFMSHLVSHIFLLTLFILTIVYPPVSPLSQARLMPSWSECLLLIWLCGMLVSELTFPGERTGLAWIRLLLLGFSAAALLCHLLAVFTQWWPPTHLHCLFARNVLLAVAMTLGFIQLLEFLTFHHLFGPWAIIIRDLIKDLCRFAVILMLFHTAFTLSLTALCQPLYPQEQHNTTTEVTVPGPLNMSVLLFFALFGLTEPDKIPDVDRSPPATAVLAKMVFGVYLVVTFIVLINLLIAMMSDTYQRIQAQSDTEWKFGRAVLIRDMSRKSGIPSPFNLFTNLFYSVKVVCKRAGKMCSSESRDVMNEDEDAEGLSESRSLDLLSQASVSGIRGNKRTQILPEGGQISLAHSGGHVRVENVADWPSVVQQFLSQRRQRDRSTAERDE
Chain of Luciferin 4-monooxygenase (P08659 whole entry): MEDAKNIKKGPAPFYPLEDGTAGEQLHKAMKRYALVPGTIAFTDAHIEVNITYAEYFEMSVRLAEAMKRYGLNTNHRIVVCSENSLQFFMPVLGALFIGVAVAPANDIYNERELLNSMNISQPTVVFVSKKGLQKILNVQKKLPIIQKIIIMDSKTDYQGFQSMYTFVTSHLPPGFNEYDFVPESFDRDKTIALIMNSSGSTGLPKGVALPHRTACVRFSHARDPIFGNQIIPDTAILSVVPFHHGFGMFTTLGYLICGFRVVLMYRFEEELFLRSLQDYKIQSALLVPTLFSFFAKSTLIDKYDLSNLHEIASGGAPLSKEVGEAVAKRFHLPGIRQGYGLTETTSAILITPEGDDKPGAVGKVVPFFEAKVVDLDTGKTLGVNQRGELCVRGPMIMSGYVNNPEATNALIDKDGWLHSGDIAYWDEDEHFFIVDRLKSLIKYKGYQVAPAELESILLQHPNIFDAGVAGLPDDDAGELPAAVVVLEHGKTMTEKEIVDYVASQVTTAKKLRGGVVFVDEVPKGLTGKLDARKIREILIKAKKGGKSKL

CC(C)(C)c1ccc(OCCC(=O)NCC(c2cccs2)N2CCOCC2)cc1 (configuration not stated)
EC50 [1]: 1.97 µM (active)

C=C(C)CC1N(c2cccc(OC)c2)C(=O)C2C(C(=O)O)C3C=CC21O3 (configuration not stated)
IC50 [2]: > 100 µM (inactive)
IC50 [3]: > 100 µM (not active)

CCc1n[nH]c2c1C(c1cccc(OC(=O)N3CCOCC3)c1)C(C#N)=C(N)O2 (configuration not stated)
EC50 (Estrogen receptor): 6.39 µM (not active)
AC50 [4]: 20.3 µM (active)
EC50 (Protein RecA): 9.88 µM (active)

Cc1ccc(C)n1-c1ccc(Br)cc1C(=O)O
EC50 (Bcl-2-like protein 10): 3.51 µM (active)

COc1ccc(S(=O)(=O)N2CCC(C)CC2)cc1Br
EC50 (Mucolipin-3): 1.82 µM (active)
EC50 (Ion channel NompC): > 29.9 µM (not active)

Brc1ccc(-c2csc(/N=C/N3CCCC3)n2)cc1
IC50 [5]: > 35 µM (not active)
IC50 [6]: > 35 µM (not active)

CN(C)c1nc(N)nc(CSc2nnnn2-c2ccccc2)n1
EC50 [7]: > 195 µM (not active)

CC(=O)c1sc(NC(=O)C2COc3ccccc3O2)nc1C (configuration not stated)
EC50 [8]: 3.97 µM (active)
EC50 (HT-1080): > 50 µM (not active)
AC50 (HEK293): 2.85 µM (active)

COc1ccc(OC)c(N(CC(=O)N2CCN(c3cc(Cl)ccc3C)CC2)S(C)(=O)=O)c1
IC50 [9]: 11.7 µM (not active)
IC50 [10]: 38.9 µM (active)
